Source: ChEMBL document CHEMBL5532669, “Guiding the Way: Traditional Medicinal Chemistry Inspiration for Rational Gram-Negative Drug Design” (J Med Chem, 2024)
Values after ≈ are worked out from the molar mass of the structure shown.

Legend:
Klebsiella pneumoniae = assay: Antibacterial activity against Klebsiella pneumoniae assessed as reduction in bacterial growth by broth microdilution method; type: functional
Enterobacter cloacae = assay: Antibacterial activity against Enterobacter cloacae assessed as reduction in bacterial growth by broth microdilution method; type: functional
Acinetobacter baumannii [1] = assay: Antibacterial activity against Acinetobacter baumannii assessed as reduction in bacterial growth by broth microdilution method; type: functional
Escherichia coli [2] = assay: Antibacterial activity against Escherichia coli assessed as reduction in bacterial growth incubated for 24 hrs by broth micro-dilution method; type: functional
Pseudomonas aeruginosa = assay: Antibacterial activity against Pseudomonas aeruginosa ATCC 15442 assessed as bacterial growth inhibition measured after 18 hrs by CLSI protocol based two-fold serial microdilution method; type: functional
Escherichia coli [3] = assay: Antibacterial activity against wild type Escherichia coli assessed as reduction in microbial growth measured after 24 hrs by broth microdilution method
Acinetobacter baumannii [4] = assay: Antibacterial activity against wild type Acinetobacter baumannii ATCC 17978 assessed as inhibition of microbial growth measured after 24 hrs by broth microdilution method; type: functional, organism-based; details: ATCC 17978, 24 h
[5] = target: T1, MexAB/OprM (Pseudomonas aeruginosa (strain ATCC 15692 / DSM 22644 / CIP 104116 / JCM14847 / LMG 12228 / 1C / PRS 101 / PAO1)) (UniProt P52477+P52002+Q51487); assay: Inhibition of Pseudomonas aeruginosa MexAB-OprM P delta 6 pore assessed as minimal potentiating concentration for 4 fold reduction Levofloxacin MIC; type: protein-complex assay
[6] = target: T1, MexAB/OprM (Pseudomonas aeruginosa (strain ATCC 15692 / DSM 22644 / CIP 104116 / JCM14847 / LMG 12228 / 1C / PRS 101 / PAO1)); assay: Inhibition of Pseudomonas aeruginosa MexAB-OprM P delta 6 pore assessed as minimal potentiating concentration for 4 fold reduction ciprofloxacin MIC; type: protein-complex assay
[7] = target: T1, MexAB/OprM (Pseudomonas aeruginosa (strain ATCC 15692 / DSM 22644 / CIP 104116 / JCM14847 / LMG 12228 / 1C / PRS 101 / PAO1)); assay: Inhibition of Pseudomonas aeruginosa MexAB-OprM P delta 6 pore assessed as minimal potentiating concentration for 4 fold reduction cefotaxime MIC; type: protein-complex assay
[8] = target: T1, MexAB/OprM (Pseudomonas aeruginosa (strain ATCC 15692 / DSM 22644 / CIP 104116 / JCM14847 / LMG 12228 / 1C / PRS 101 / PAO1)); assay: Inhibition of Pseudomonas aeruginosa MexAB-OprM P delta 6 pore assessed as minimal potentiating concentration for 4 fold reduction novobiocin MIC; type: protein-complex assay
[9] = target: T1, MexAB/OprM (Pseudomonas aeruginosa (strain ATCC 15692 / DSM 22644 / CIP 104116 / JCM14847 / LMG 12228 / 1C / PRS 101 / PAO1)); assay: Inhibition of Pseudomonas aeruginosa MexAB-OprM P delta 6 pore assessed as minimal potentiating concentration for 4 fold reduction carbenicillin MIC; type: protein-complex assay
Escherichia coli [10] = assay: Antibacterial activity against wild type Escherichia coli assessed as reduction in microbial growth measured after 24 hrs by broth microdilution method; remark: listed apart in the source
Escherichia coli [11] = assay: Antibacterial activity against wild type Escherichia coli ATCC 25922 assessed as reduction in bacterial growth measured after 16 to 20 hrs by CLSI-based microbroth dilution method; type: functional, organism-based
Escherichia coli [12] = assay: Antibacterial activity against wild type Escherichia coli assessed as reduction in bacterial growth inhibition incubated for 24 hrs by broth microdilution method; type: functional, organism-based

## Cc1c(CN(C)C(=O)/C=C/c2cnc3c(c2)CCC(=O)N3)oc2ccccc12 [AFN-1252]
Klebsiella pneumoniae
  MIC: > 32 µg/mL
Enterobacter cloacae
  MIC: > 32 µg/mL
Acinetobacter baumannii [1]
  MIC: > 32 µg/mL
Escherichia coli [2]
  MIC: > 32 µg/mL
Pseudomonas aeruginosa
  MIC: > 32 µg/mL

## C[n+]1cccc(-c2ccc(-c3ccc(N4C[C@H](CO)OC4=O)cc3F)cc2)c1
Escherichia coli [3]
  IC50: 15.4 µM

## O=C1O[C@@H](CO)CN1c1ccc(-c2ccnc(N3CCCC3)c2)c(F)c1
Acinetobacter baumannii [4]
  IC50: 19 µM

## O=C(/C=C/c1ccccc1Cl)Nc1ccc(C2=NCCN2)cc1
[5]
  MEC: > 100 µM
[6]
  MEC: > 100 µM
[7]
  MEC: > 100 µM
[8]
  MEC: > 100 µM
[9]
  MEC: > 100 µM

## CC(O)c1ccc(OCc2ccc(N3C[C@H](CO)OC3=O)cc2F)cc1 (some centres not stated)
Escherichia coli [10]
  IC50: 59 µM

## N/C(=N/O)c1ccc(-c2ccc(N3C[C@H](CO)OC3=O)cc2F)cc1
Escherichia coli [11]
  IC50: 13.5 µM

## O=C1O[C@@H](CO)CN1c1ccc(-c2cc(Cl)cc(Cl)c2)c(F)c1
Escherichia coli [10]
  IC50: 59 µM

## COCc1ccc(N2C[C@H](CO)OC2=O)cc1F
Escherichia coli [10]
  IC50: 59 µM

## Cc1c(CNCCCCCCCCNC(=N)N)cc(-c2ccc(Cl)cc2)n1-c1ccc(Cl)cc1
Klebsiella pneumoniae
  MIC: 16 µg/mL (≈ 32 µM)
Acinetobacter baumannii [1]
  MIC: 8 µg/mL (≈ 16 µM)
Escherichia coli [2]
  MIC: 8 µg/mL (≈ 16 µM)
Pseudomonas aeruginosa
  MIC: 64 µg/mL (≈ 128 µM)

## C[n+]1ccc2cc(-c3ccc(N4C[C@H](CO)OC4=O)cc3F)ccc2c1
Escherichia coli [3]
  IC50: 15.4 µM

## O=Cc1ccc(-c2ccc(N3C[C@H](CO)OC3=O)cc2F)cc1
Escherichia coli [11]
  IC50: 13.5 µM

## C[n+]1ccc(-c2ccc(-c3ccc(N4C[C@H](CO)OC4=O)cc3F)cc2)cc1
Escherichia coli [3]
  IC50: 15.4 µM

## COC(=O)c1cncc(-c2ccc(N3C[C@H](CO)OC3=O)cc2F)c1
Acinetobacter baumannii [4]
  IC50: 19 µM

## O=C1O[C@@H](CO)CN1c1ccc(-c2ccccc2OC(F)(F)F)c(F)c1
Escherichia coli [12]
  IC50: 23 µM

## Cc1c(CN(C)C(=O)/C=C/c2cnc3c(c2)CC(N)C(=O)N3)oc2ccccc12 (configuration not stated)
Klebsiella pneumoniae
  MIC: 8 µg/mL (≈ 20.5 µM)
Enterobacter cloacae
  MIC: 8 µg/mL (≈ 20.5 µM)
Acinetobacter baumannii [1]
  MIC: 4 µg/mL (≈ 10.2 µM)
Escherichia coli [2]
  MIC: 4 µg/mL (≈ 10.2 µM)
Pseudomonas aeruginosa
  MIC: > 64 µg/mL

## CC(C)c1ccc(-c2ccc(N3C[C@H](CO)OC3=O)cc2F)c(C(C)C)c1
Escherichia coli [12]
  IC50: 23 µM

## CC[n+]1ccc(-c2ccc(N3C[C@H](CO)OC3=O)cc2F)cc1
Escherichia coli [3]
  IC50: 15.4 µM

## Cc1c(CNC2CCCCC2)cc(-c2ccc(Cl)cc2)n1-c1ccc(Cl)cc1
Klebsiella pneumoniae
  MIC: > 128 µg/mL
Acinetobacter baumannii [1]
  MIC: 64 µg/mL (≈ 155 µM)
Escherichia coli [2]
  MIC: > 128 µg/mL
Pseudomonas aeruginosa
  MIC: > 128 µg/mL

## C[n+]1ccccc1-c1ccc(-c2ccc(N3C[C@H](CO)OC3=O)cc2F)cc1
Escherichia coli [3]
  IC50: 15.4 µM

## Nc1cccc(-c2ccc(N3C[C@H](CO)OC3=O)cc2F)n1
Escherichia coli [10]
  IC50: 59 µM

## O=C1O[C@@H](CO)CN1c1ccc(-c2ccc(CO)cc2)c(F)c1
Escherichia coli [11]
  IC50: 13.5 µM

## CCC[n+]1ccc(-c2ccc(N3C[C@H](CO)OC3=O)cc2F)cc1
Escherichia coli [3]
  IC50: 15.4 µM

## O=C(/C=C/c1ccccc1Cl)Nc1ccc(C2=NCCN2)c(C2=NCCN2)c1
[5]
  MEC: 6.25 µM
[6]
  MEC: 12.5 µM
[7]
  MEC: 100 µM
[8]
  MEC: 3.12 µM
[9]
  MEC: 100 µM

## O=C1O[C@@H](CO)CN1c1ccc(-c2ccc(-c3ccccn3)cc2)c(F)c1
Escherichia coli [11]
  IC50: 13.5 µM

## Cc1c(CNC2CCC(N)CC2)cc(-c2ccc(Cl)cc2)n1-c1ccc(Cl)cc1 (configuration not stated)
Klebsiella pneumoniae
  MIC: 16 µg/mL (≈ 37.3 µM)
Acinetobacter baumannii [1]
  MIC: 16 µg/mL (≈ 37.3 µM)
Escherichia coli [2]
  MIC: 8 µg/mL (≈ 18.7 µM)
Pseudomonas aeruginosa
  MIC: 32 µg/mL (≈ 74.7 µM)

## COC(=O)c1ccccc1-c1ccc(N2C[C@H](CO)OC2=O)cc1F
Escherichia coli [12]
  IC50: 23 µM

## Cc1cc(=O)n(C)c2c3c4c(cc12)c(C)cc(=O)n4C(CN)CO3 (configuration not stated)
Klebsiella pneumoniae
  MIC: 1 µg/mL (≈ 3.07 µM)
Enterobacter cloacae
  MIC: 0.5 µg/mL (≈ 1.54 µM)
Acinetobacter baumannii [1]
  MIC: 2 µg/mL (≈ 6.15 µM)
Escherichia coli [2]
  MIC: 0.5 µg/mL (≈ 1.54 µM)
Pseudomonas aeruginosa
  MIC: 16 µg/mL (≈ 49.2 µM)

## O=C1O[C@@H](CO)CN1c1ccc(-c2cc[n+](Cc3ccccc3)cc2)c(F)c1
Escherichia coli [3]
  IC50: 15.4 µM

## O=C1O[C@@H](CO)CN1c1ccc(-c2ccccc2)c(F)c1
Escherichia coli [11]
  IC50: 13.5 µM

## O=C1O[C@@H](CO)CN1c1ccc(-c2ccc(SC(F)(F)F)cc2)c(F)c1
Escherichia coli [11]
  IC50: 13.5 µM

## O=C1O[C@@H](CO)CN1c1ccc(-c2cccc(CO)c2)c(F)c1
Escherichia coli [11]
  IC50: 13.5 µM

## CSCc1ccc(N2C[C@H](CO)OC2=O)cc1F
Escherichia coli [10]
  IC50: 59 µM

## CC(C)[n+]1ccc(-c2ccc(N3C[C@H](CO)OC3=O)cc2F)cc1
Escherichia coli [11]
  IC50: 13.5 µM
